Reference: patent US11311593B2, “Root extracts from plants of the Morus genus and uses of same” (PLANT ADVANCED TECHNOLOGIES PAT, priority 2017, dated 2022)
“Also recorded” adds a separate entry of the source.

Experiments:
fungal tyrosinase [1] = assay: Target Binding affinity test for tyrosinase (UPLC-MS of bound ligands); settings: for Relative affinity (RA) for tyrosinase: ligands in non-stimulated M. alba root extract, moracenin B = reference ligand
From the text: It is based on the principle of bringing the ligands and the target into contact in the liquid phase so that the ligands that have the greatest affinity with the target bind to it, elimination of the ligands that are not fixed, separation of the complexes in order to recover the ligands which have been fixed, then quantification of the latter. In a first step of the method, the extract and the target are mixed. The compounds of the extract compete for access to the binding sites of the target. The strongest compounds displace the weakest and are retained more effectively by the target. […] A reference sample was also prepared by diluting the sample to be analyzed 10-fold in a solution of water and a quarter of the volume of acetonitrile. […] Pre-conditioning step-Wells with a filtering membrane were pre-conditioned with a volume of 500 μL of an 85% solution of ammonium acetate and 15% of ethanol which was passed through the membrane by centrifuging at 14000 g for 60 seconds. 2. […] 3. Washing step-The mixture of the enzyme and the sample to be analyzed was deposited in a well that had been pre-conditioned in the pre-conditioning step, then centrifuged at 14000 g until most of the solvent had been eliminated. […] This procedure was repeated three times and eliminated all of the compounds that were not bound to the enzyme. 4. Separation step-The enzyme-ligand complexes retained in the filter were re-suspended in a volume of 10 μL of ultra-pure water, then mixed with a volume of 40 μL of acetonitrile in order to denature and precipitate the enzyme and, at the same time, to liberate the ligands. The mixture was centrifuged at 21000 g for 10 min in order to separate the precipitate from the supernatant. 5. Analysis step-Said supernatant was analyzed by liquid phase chromatography coupled to a mass spectrometer, also known by the acronym UPLC-MS. The reference sample was also analyzed in the same manner, using the same analytical conditions. The UPLC-MS analysis was carried out in accordance with the protocol described in Example 1. The chromatograms obtained are presented in FIGS. 3A and 3B and represent a signal intensity as a function of retention time in a column. […] Each peak is associated with one of the ligands present in the analyzed extract. The quantity associated with each ligand corresponds to the area of the peak. […] For each ligand, an affinity ratio, RACEi, was calculated as follows: [formula] where: NF is a normalization factor; […] the intensity of the analytical signal for the ligand CEi in the reference sample; ISeq,REF is the intensity of the analytical signal for the reference ligand REF (here, moracenin B) in the reference sample; […] the intensity of the analytical signal for the ligand CEi in the treated solution (the sample to be analyzed after steps 2 to 4 for binding and separation of the ligands) for the detached ligands; ISTB,REF is the intensity of the analytical signal for the reference ligand REF (here, moracenin B) in the treated solution (the sample to be analyzed after steps 2 to 4 for binding and separation of the ligands) for the detached ligands; RA, CEi is the relative affinity ratio (RA), representing an affinity of the ligand CEi for the target. The value of the ratio increases with affinity.

fungal tyrosinase [2] = assay: Anti-tyrosinase inhibiting activity, L-tyrosine as substrate, dopachrome at 475 nm; type: biochemical
Procedure: Morus alba plants were cultivated aeroponically for 8 weeks with a 15/10/30 (N/P/K) culture medium and with an electroconductivity in the range 1.0 and 1.2 mS/cm. The roots were chopped, dried, crushed and macerated in pure ethanol in a ratio of 1 mL of ethanol for 20 mg dry matter in accordance with the protocol described in Example 1. The sample was centrifuged at 21000 g for 10 minutes in order to separate the solid material. The anti-tyrosinase inhibiting activity of the supernatant was measured using L-tyrosine as the substrate. Tyrosinase catalyzes the conversion of L-tyrosine to dopaquinone, which is spontaneously converted into dopachrome. This latter absorbs strongly in the visible range of the electromagnetic spectrum (at 475 nm). The activity of the tyrosinase was measured by following the enzymatic conversion of the colorless L-tyrosine into orange dopachrome with the aid of a microplate reader.
The anti-tyrosinase activity of the supernatant was measured by mixing the following components: 150 μL of the solution of L-tyrosine (1.5 mM) in 50 mM sodium phosphate buffer, pH 6.8; 40 μL of supernatant diluted 2- to 800-fold in ethanol was tested as the inhibitor solution. The enzymatic conversion was initialized by adding a volume of 10 μL of fungal tyrosinase (0.2 mg/mL in a 50 mM sodium phosphate buffer, pH 6.8). The “control” experiment was carried out in the same manner, replacing the supernatant with pure ethanol.
Two root extracts of Morus alba were prepared in accordance with the protocol described in Example 1. The measurement of the anti-tyrosinase inhibiting activity was carried out in accordance with the protocol described in Example 2.1 with 40 μL of each of the two extracts diluted 100-fold or 200-fold in pure ethanol.
The measurement of the anti-tyrosinase inhibiting activity was carried out in accordance with the protocol described in Example 2.1.

Row | Compound | Relative affinity (RA) for tyrosinase (fungal tyrosinase [1]) | % inhibition of tyrosinase (fungal tyrosinase [2]; purified compound, 2.5 μM) [%] | % inhibition of tyrosinase (fungal tyrosinase [2]; purified compound, 5 μM) [%] | % inhibition of tyrosinase (fungal tyrosinase [2]; purified compound, 20 μM) [%] | affinity for tyrosinase compared with the other compounds of the extract (in words) (fungal tyrosinase [1]; peak areas of FIG. 3B / relative affinities) | rank of tyrosinase inhibiting activity among the 4 purified compounds (in words) (fungal tyrosinase [2]; 2.5, 5 and 20 μM) | inhibition of tyrosinase (fungal tyrosinase [2]; purified compound, 3.2 mg/L) [%]
1 | CC(C)=CCc1c(O)ccc(C(=O)[C@@H]2CC(C)=C[C@H](c3c(O)cc(O)c4c(=O)c(CC=C(C)C)c(-c5ccc(O)cc5O)oc34)[C@H]2c2ccc(O)cc2O)c1O [Moracenin A, moracenin A] | 5.1 | 18.9 | 27.7 | 59.0 | – | – | –
2 | CC(C)=CCc1c(-c2ccc(O)cc2O)oc2c([C@H]3C=C(C)C[C@H](C(=O)c4ccc(O)cc4O)[C@@H]3c3ccc(O)cc3O)c(O)cc(O)c2c1=O [Moracenin B, moracenin B] | 1.0 | 22.6 | 33.5 | 69.7 | – | – | –
3 | CC(C)=CCc1c(O)ccc(C(=O)C2C(c3ccc(O)cc3O)CC3(C)CC2c2c(O)cc(-c4cc5ccc(O)cc5o4)cc2O3)c1O (stereo not drawn) [Wittiorumin F, wittiorumin F] | 15.5 | 35.7 | 52.9 | 75.1 | greater affinity; also recorded: higher affinity | best inhibiting activity | 52.9
